Measurements published in patent publication US12064516B2, “Pharmaceutical formulations and uses thereof” (Aldeyra Therapeutics, Inc., priority 2020, dated 2024).
Read-outs that look alike come from different tables or passages of the source.

Test: Pharmacokinetics of compound I-1 in the dog by intravenous, oral gavage and oral capsule routes
Assay type: in vivo, beagle dogs
Conditions: male, beagle, dog, plasma; for concentration at 4 h / concentration at 8 h / concentration at 12 h / concentration at 0.25 h / concentration at 0.5 h / concentration at 1 h / concentration at 2 h: read-out: Concentration at time point; for bioavailability: read-out: BioA (bioavailability)
Description: A pharmacokinetic study was conducted to compare the bioavailability of capsule and suspension oral formulations vs. an intravenous formulations.
The standard curve was prepared from 1 to 2,000 ng/mL. QC samples were prepared at […]. Dilution QCs were prepared at 10-fold dilution. Deuterated (d6) I-1 (compound 1-7) was used as an internal standard. A 50 μL aliquot of sample was added to 150 μL of cold internal standard in acetonitrile to effect protein precipitation. The resulting supernatants were analyzed by LCMS. Diluted sample data was utilized only for over-the-curve results.
Briefly, 9 male non-naïve beagle dogs were assigned in groups of 3 to 3 dose groups. Group 1 was dosed 3 mg/kg by the intravenous route in a vehicle of 20% sulfobutylether-β-cyclodextrin (SBECD). Group 2 was dosed 10 mg/kg by the oral gavage route in a vehicle of 0.5% methylcellulose (MC). Group 3 was dosed with 100 mg capsules.
The I-1 100 mg capsules are manufactured as a non-sterile spray dried, granulated powder blend. The blend is then filled into capsules for oral delivery. The capsules are packaged in high-density polyethylene bottles. The quantitative composition of the I-1 100 mg capsule is presented above in Table B.
Procedure: (PO) gavage: formulations will be administered via a rubber oral gavage tube followed by a 10 mL flush with drinking water. (PO) tablet: tablets will be administered orally by placing the tablet in the back of the throat followed by a 10 mL flush with water.
Frequency: Pre-dose, 5, 15, 30 min, 1, 2, 4, 8, and 12 hrs post-dose (IV); pre-dose, 15, 30 min, 1, 2, 4, 8, and 12 hrs post-dose (PO by gavage and PO by capsule).
Blood collection: each blood sample will be collected from the dog's jugular vein or other accessible vein via direct venepuncture, placed into a pre-labeled tube containing K2EDTA and kept on ice until centrifugation.
Plasma preparation and storage: Certifuged at 4 C at 3,000× for 5 mm. Stored in a freezer until analysed.
Pharmacokinetics package PKSolver2.0™ has been validated against WinNonLin™ as a tool for non-GLP studies and was used to process the pharmacokinetic data.
For each route, the average data were processed with non-compartmental, one compartment, and two compartment models. The models were assessed for goodness of fit and the accuracy of the model to assess the biphasic data, with either a) no weighting, b) 1/concentration observed, or c) 1/concentration observed squared. 1/concentration predicted, and 1/concentration predicted squared weightings were also assessed for best fit. […] The zeros were averaged with the 71.5 value for a resulting average of 23.8. For the In Group 2 (PO Gavage) subject 3 experienced 30 mL of emesis, so the dose assigned to that subject was 7.46. In all cases, the subjects were modelled individually, and the individual PK parameters were averaged to provide final parameters.
For group 1 (intravenous) the final model selected was a two compartment model with 1/concentration observed squared weighting.
For group 2 (oral gavage) the final model was a two compartment extravascular model with 1/concentration predicted squared weighting.
For group 3 (oral capsule) the final model was a one compartment extravascular model with a lag time and no weighting. […] The body weight of each animal was used to assign a mg/kg dose to each individual. Subject 1 was dosed at 7.69 mg/kg. Subject 2 was 6.94 mg/kg, and Subject 3 was 6.99 mg/kg.

[1] = oral, 7 mg/kg, Group 3: PO Capsule 7 mg/kg, Subject 1
[2] = oral, 7 mg/kg, Group 3: PO Capsule 7 mg/kg, Subject 2
[3] = oral, 7 mg/kg, Group 3: PO Capsule 7 mg/kg, Subject 3
[4] = oral, 7 mg/kg, Group 3: PO Capsule 7 mg/kg, Average
[5] = oral, 7.2 mg/kg, 100 mg Capsule, average dose 7.2 mg/kg, Average
[6] = po, 7.2 mg/kg, 100 mg Capsule, average dose 7.2 mg/kg, Average
[7] = po, 7.2 mg/kg, 100 mg Capsule, average dose 7.2 mg/kg, Subj1
[8] = po, 7.2 mg/kg, 100 mg Capsule, average dose 7.2 mg/kg, Subj2
[9] = po, 7.2 mg/kg, 100 mg Capsule, average dose 7.2 mg/kg, Subj3
[10] = po, 10 mg/kg, Group 2: PO Gavage 10 mg/kg, Average
[11] = po, 10 mg/kg, Group 2: PO Gavage 10 mg/kg, Subject 1
[12] = po, 10 mg/kg, Group 2: PO Gavage 10 mg/kg, Subject 2
[13] = po, 10 mg/kg, Group 2: PO Gavage 10 mg/kg, Subject 3
[14] = po, 10 mg/kg, Oral Gavage 0.5% Methylcellulose 10 mg/kg, Average
[15] = po, 10 mg/kg, Oral Gavage 0.5% Methylcellulose 10 mg/kg, Subj1
[16] = po, 10 mg/kg, Oral Gavage 0.5% Methylcellulose 10 mg/kg, Subj2
[17] = po, 10 mg/kg, Oral Gavage 0.5% Methylcellulose 10 mg/kg, Subj3

Compound `CC(C)(O)c1nc2ccccc2cc1N` [I-1] has a concentration at 4 h [1] of 1070 ng/mL, a concentration at 4 h [2] of 736 ng/mL and a concentration at 4 h [3] of 1150 ng/mL. For the same compound, the concentration at 8 h [4] was 223 ng/mL, the concentration at 8 h [1] was 195 ng/mL and the concentration at 8 h [2] was 147 ng/mL. For the same compound, the concentration at 8 h [3] was 327 ng/mL, the concentration at 12 h [4] was 94.5 ng/mL and the concentration at 12 h [1] was 58.7 ng/mL. For the same compound, the concentration at 12 h [2] was 58 ng/mL, the concentration at 12 h [3] was 167 ng/mL and the Tmax [5] was 2.37 h. For the same compound, the bioavailability [5] was 83%, the concentration at 0.25 h (oral, 100 mg, Group 3: PO Capsule 7 mg/kg, Average) was 23.8 ng/mL and the concentration at 0.25 h (oral, 100 mg, Group 3: PO Capsule 7 mg/kg, Subject 2) was 71.5 ng/mL. For the same compound, the AUC(0-inf) [6] was 8170 ng·h/mL, the AUC(0-t) [6] was 8080 ng·h/mL and the Cmax [6] was 1700 ng/mL. For the same compound, the half-life [6] was 1.33 h, the AUC(0-inf) [7] was 7350 ng·h/mL and the AUC(0-t) [7] was 7240 ng·h/mL. The Cmax [7] was 1390 ng/mL, the Tmax [7] was 2.57 h and the half-life [7] was 1.38 h. For the same compound, the AUC(0-inf) [8] was 5610 ng·h/mL, the AUC(0-t) [8] was 5490 ng·h/mL and the Cmax [8] was 986 ng/mL. The Tmax [8] was 2.37 h, the half-life [8] was 1.49 h and the AUC(0-inf) [9] was 11600 ng·h/mL. It also gave an AUC(0-t) [9] of 11500 ng·h/mL, a Cmax [9] of 2730 ng/mL and a Tmax [9] of 2.16 h. The half-life [9] was 1.1 h, the concentration at 0.25 h [10] was 2480 ng/mL and the concentration at 0.25 h [11] was 3360 ng/mL. For the same compound, the concentration at 0.25 h [12] was 2760 ng/mL, the concentration at 0.25 h [13] was 1310 ng/mL and the concentration at 0.5 h [10] was 4320 ng/mL. The concentration at 0.5 h [11] was 5400 ng/mL, the concentration at 0.5 h [12] was 4290 ng/mL and the concentration at 0.5 h [13] was 3260 ng/mL. It also gave a concentration at 1 h [10] of 2700 ng/mL, a concentration at 1 h [11] of 2970 ng/mL and a concentration at 1 h [12] of 2610 ng/mL. The concentration at 1 h [13] was 2520 ng/mL, the concentration at 2 h [10] was 1420 ng/mL and the concentration at 2 h [11] was 1890 ng/mL. It also gave a concentration at 2 h [12] of 1470 ng/mL, a concentration at 2 h [13] of 908 ng/mL and a concentration at 4 h [10] of 787 ng/mL. For the same compound, the concentration at 4 h [11] was 909 ng/mL, the concentration at 4 h [12] was 909 ng/mL and the concentration at 4 h [13] was 541 ng/mL. It also gave a concentration at 8 h [10] of 157 ng/mL, a concentration at 8 h [11] of 131 ng/mL and a concentration at 8 h [12] of 233 ng/mL. It also gave a concentration at 8 h [13] of 108 ng/mL, a concentration at 12 h [10] of 45.1 ng/mL and a concentration at 12 h [11] of 28.1 ng/mL. For the same compound, the concentration at 12 h [12] was 59.1 ng/mL, the concentration at 12 h [13] was 48.1 ng/mL and the AUC(0-inf) [14] was 9550 ng·h/mL. The AUC(0-t) [14] was 9360 ng·h/mL, the Cmax [14] was 3560 ng/mL and the Tmax [14] was 0.518 h. It also gave a half-life [14] of 3.02 h, a bioavailability [14] of 75% and an AUC(0-inf) [15] of 11200 ng·h/mL. The AUC(0-t) [15] was 11100 ng·h/mL, the Cmax [15] was 4350 ng/mL and the Tmax [15] was 0.459 h. It also gave a half-life [15] of 2.85 h, an AUC(0-inf) [16] of 10100 ng·h/mL and an AUC(0-t) [16] of 9910 ng·h/mL. For the same compound, the Cmax [16] was 3670 ng/mL, the Tmax [16] was 0.46 h and the half-life [16] was 2.13 h. It also gave an AUC(0-inf) [17] of 7330 ng·h/mL, an AUC(0-t) [17] of 7050 ng·h/mL and a Cmax [17] of 2650 ng/mL. It also gave a Tmax [17] of 0.635 h and a half-life [17] of 4.08 h.
